Laboratory results reported in patent US11554122B2, “Fused pentacyclic imidazole derivatives as modulators of TNF activity” (UCB Biopharma SRL, priority 2018, dated 2023).

molecular target: T1, TNFα (Homo sapiens, UniProt P01375); assay: TNF human whole blood screening assay: CD11b expression on granulocytes after zymosan challenge; type: cell-based; conditions: whole blood IC50 multiplied by the unbound fraction (Fu) in human blood; read-out: free IC50 in the human whole blood assay
T1 construct: a human whole blood assay driven by endogenously expressed TNFα; endogenous in cells; host or cells: EDTA anticoagulated human whole blood, stimulated with 1 ug/ml zymosan
T1 sequence (P01375 77-233 limits assumed): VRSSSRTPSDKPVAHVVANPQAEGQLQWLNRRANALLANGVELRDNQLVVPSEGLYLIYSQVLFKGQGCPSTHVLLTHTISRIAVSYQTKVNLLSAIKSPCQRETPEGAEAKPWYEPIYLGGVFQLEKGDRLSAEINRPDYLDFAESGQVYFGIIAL
Procedure: Furthermore, the compounds in accordance with the present invention are potent inhibitors of CD11b expressed on granulocytes in human blood cells, when tested in the human whole blood assay as described herein.
TNF Human Whole Blood Screening Assay
The compounds according to the Examples were assessed in a human whole blood assay driven by endogenously expressed TNFα by measuring the expression of CD11b on granulocytes in human whole blood challenged with zymosan. Zymosan binds to TLR2 and other receptors, leading to NF-κB signalling which in turn induces the production of pro-inflammatory mediators, including TNFα. In turn, TNFα can stimulate the expression of CD11b on granulocytes.
Compounds were diluted from 10 mM DMSO stocks (final assay concentration of 0.2% DMSO) to generate a 10-point 2.5-fold serial dilution curve (for example, 20,000 nM to 5.3 nM final assay concentration). Diluted compound was preincubated with EDTA anticoagulated human whole blood for 60 minutes at 37° C. prior to stimulation with 1 ug/ml zymosan. After 3 hours stimulation with zymosan, the whole blood was stained with fluorescent labelled anti CD45 and anti CD11b antibodies. The samples were fixed and red blood cells lysed before analysis with a FACS CANTO II.
FACS (Fluoresceence Activated Cell Sorting) analysis was performed with FloJo software. SSC-A (Side Scatter Area of peak) and CD45 signal was used to identify granulocytes, followed by SSC-A and SSC-W (Side Scatter Width of peak) to select single cells. MESF (Molecules of Equivalent Soluble Fluorochrome) beads were used to calibrate the CD11b signal on single cell granulocytes. Activation of CD11b was inhibited in a dose dependent manner by the TNFα inhibitor.
Percentage inhibition of compounds was calculated against TNFα containing DMSO alone (control) and maximum inhibition generated with excess blocking anti-TNFα monoclonal antibody. An inhibition curve was constructed in ActivityBase using a 4 parameter logistic model (XLfit™). The point of inflexion between the fitted minimum and maximum effects of the inhibitor gives the IC50 value.
A calculated IC50 for the free compound (herein referred to as “free IC50”) that takes into account the extent of fraction unbound in blood was determined by multiplying the IC50 generated from the first assay (human whole blood screening assay) by the unbound fraction (Fu), generated from the second assay (human blood binding assay).

Row | IC50 [nM] | Structure (SMILES)
1 | ~6 | [2H]C([2H])([2H])N1C(=O)c2cccc(OC(F)F)c2[C@H]2C[C@@H]1c1nc3ccc(-c4cnc([C@]5(O)C[C@@](C)(C#N)C5)nc4)cc3n12 [Example 1, 3-[5-[(1R,11R)-18-(difluoromethoxy)-13-oxo-12-(trideuteriomethyl)-2,9,12-triazapentacyclo[9.8.1.02,10.03,8.014,19]icosa-3(8),4,6,9,14(19),15,17-heptaen-5-yl]pyrimidin-2-yl]-3-hydroxy-1-methylcyclobutane-1-carbonitrile]
2 | ~12 | C[C@]1(C#N)C[C@](O)(c2ncc(-c3ccc4nc5n(c4c3)[C@@H]3C[C@H]5NC(=O)c4cccc(OC(F)F)c43)cn2)C1 [Example 2, 3-[5-[(1R,11R)-18-(difluoromethoxy)-13-oxo-2,9,12-triazapentacyclo[9.8.1.02,10.03,8.014,19]icosa-3(8),4,6,9,14(19),15,17-heptaen-5-yl]pyrimidin-2-yl]-3-hydroxy-1-methylcyclobutane-1-carbonitrile]
3 | ~6 | C[C@]1(C#N)C[C@](O)(c2ncc(-c3cc4c(cc3F)nc3n4[C@@H]4C[C@H]3NC(=O)c3cccc(OC(F)F)c34)cn2)C1 [Example 3, 3-[5-[(1R,11R)-18-(difluoromethoxy)-6-fluoro-13-oxo-2,9,12-triazapentacyclo[9.8.1.02,10.03,8.014,19]icosa-3(8),4,6,9,14(19),15,17-heptaen-5-yl]pyrimidin-2-yl]-3-hydroxy-1-methylcyclobutane-1-carbonitrile]
4 | < 4 | CN1C(=O)c2cccc(OC(F)F)c2[C@H]2C[C@@H]1c1nc3ccc(-c4cnc([C@]5(O)C[C@@](C)(C#N)C5)c(F)c4)cc3n12 [Example 4, 3-[5-[(1R,11R)-18-(difluoromethoxy)-12-methyl-13-oxo-2,9,12-triazapentacyclo[9.8.1.02,10.03,8.014,19]icosa-3,5,7,9,14(19),15,17-heptaen-5-yl]-3-fluoropyridin-2-yl]-3-hydroxy-1-methylcyclobutane-1-carbonitrile]
5 | ~5 | C[C@]1(C#N)C[C@](O)(c2ncc(-c3ccc4nc5n(c4c3)[C@@H]3C[C@H]5NC(=O)c4cccc(OC(F)F)c43)cc2F)C1 [Example 5, 3-[5-[(1R,11R)-18-(difluoromethoxy)-13-oxo-2,9,12-triazapentacyclo[9.8.1.02,10.03,8.014,19]icosa-3,5,7,9,14(19),15,17-heptaen-5-yl]-3-fluoropyridin-2-yl]-3-hydroxy-1-methylcyclobutane-1-carbonitrile]
6 | < 4 | CN1C(=O)c2cccc(OC(F)F)c2[C@H]2C[C@@H]1c1nc3ccc(-c4cnc([C@]5(C#N)C[C@@](C)(O)C5)nc4)cc3n12 [Example 6, 1-[5-[(1R,11R)-18-(difluoromethoxy)-12-methyl-13-oxo-2,9,12-triazapentacyclo[9.8.1.02,10.03,8.014,19]icosa-3(8),4,6,9,14(19),15,17-heptaen-5-yl]pyrimidin-2-yl]-3-hydroxy-3-methylcyclobutane-1-carbonitrile]
7 | < 4 | CN1C(=O)c2cccc(OC(F)F)c2[C@H]2C[C@@H]1c1nc3ccc(-c4cnc([C@]5(C#N)C[C@@](C)(O)C5)c(F)c4)cc3n12 [Example 7, 1-[5-[(1R,11R)-18-(difluoromethoxy)-12-methyl-13-oxo-2,9,12-triazapentacyclo[9.8.1.02,10.03,8.014,19]icosa-3(8),4,6,9,14(19),15,17-heptaen-5-yl]-3-fluoropyridin-2-yl]-3-hydroxy-3-methylcyclobutane-1-carbonitrile]
